Reference: the supplement of paper PMC11451515

Tested on: SEM cells
Assay: cell viability relative to DMSO control; higher = less cytotoxic
Conditions: 48 h
Summary of the method: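 Library compounds in DMSO were pin-dosed into 1536-well plates (5 μl) holding NOMO1 or SEM (500 cells/well) or P12-Ichikawa (1000 cells/well) leukemia cells, across an 11-point threefold series of 47 μM to 0.79 nM. Each cell line had been adapted for at least four passages in each medium. CellTiter-Glo One luminescence was read after 48 h at 37°C. Viability is the per-plate percentage relative to DMSO wells, with cell-free wells as background.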

[1] = HPLM + 10% dialyzed FBS, 0.000781 µM
[2] = HPLM + 10% dialyzed FBS, 0.00234 µM
[3] = HPLM + 10% dialyzed FBS, 0.00702 µM
[4] = HPLM + 10% dialyzed FBS, 0.0211 µM
[5] = HPLM + 10% dialyzed FBS, 0.0632 µM
[6] = HPLM + 10% dialyzed FBS, 0.19 µM
[7] = HPLM + 10% dialyzed FBS, 0.569 µM
[8] = HPLM + 10% dialyzed FBS, 1.71 µM
[9] = HPLM + 10% dialyzed FBS, 5.12 µM
[10] = HPLM + 10% dialyzed FBS, 15.4 µM
[11] = HPLM + 10% dialyzed FBS, 46.1 µM
[12] = RPMI 5 mM glucose + 10% FBS, 0.000781 µM
[13] = RPMI 5 mM glucose + 10% FBS, 0.00234 µM
[14] = RPMI 5 mM glucose + 10% FBS, 0.00702 µM
[15] = RPMI 5 mM glucose + 10% FBS, 0.0211 µM
[16] = RPMI 5 mM glucose + 10% FBS, 0.0632 µM
[17] = RPMI 5 mM glucose + 10% FBS, 0.19 µM
[18] = RPMI 5 mM glucose + 10% FBS, 0.569 µM
[19] = RPMI 5 mM glucose + 10% FBS, 1.71 µM
[20] = RPMI 5 mM glucose + 10% FBS, 5.12 µM
[21] = RPMI 5 mM glucose + 10% FBS, 15.4 µM
[22] = RPMI 5 mM glucose + 10% FBS, 46.1 µM

COc1cc(N2CCC(N(C)C)CC2)ccc1Nc1ncc(Cl)c(Nc2ccccc2P(C)(C)=O)n1
cell viability [1]: 117%
cell viability [2]: 112%
cell viability [3]: 116%
cell viability [4]: 114%
cell viability [5]: 110%
cell viability [6]: 82.3%
cell viability [7]: 51%
cell viability [8]: 28.3%
cell viability [9]: 17.7%
cell viability [10]: 11.9%
cell viability [11]: 5.99%
cell viability [12]: 114%
cell viability [13]: 105%
cell viability [14]: 114%
cell viability [15]: 109%
cell viability [16]: 128%
cell viability [17]: 95.4%
cell viability [18]: 57.8%
cell viability [19]: 18.2%
cell viability [20]: 8.88%
cell viability [21]: 6.45%
cell viability [22]: 4.89%

Cc1ncc([N+](=O)[O-])n1CC(C)O (stereo not given)
cell viability [1]: 60.5%
cell viability [2]: 75.1%
cell viability [3]: 69.3%
cell viability [4]: 75.5%
cell viability [5]: 57.6%
cell viability [6]: 71.4%
cell viability [7]: 91.4%
cell viability [8]: 88.1%
cell viability [9]: 81.6%
cell viability [10]: 82.8%
cell viability [11]: 13.3%
cell viability [12]: 78.9%
cell viability [13]: 99.3%
cell viability [14]: 89.4%
cell viability [15]: 99.8%
cell viability [16]: 64.6%
cell viability [17]: 97.8%
cell viability [18]: 102%
cell viability [19]: 110%
cell viability [20]: 96.2%
cell viability [21]: 101%
cell viability [22]: 14.8%
cell viability (RPMI 5 mM glucose + 10% dialyzed FBS, 0.000781 µM): 84.2%
cell viability (RPMI 5 mM glucose + 10% dialyzed FBS, 0.00234 µM): 101%
cell viability (RPMI 5 mM glucose + 10% dialyzed FBS, 0.00702 µM): 98.4%
cell viability (RPMI 5 mM glucose + 10% dialyzed FBS, 0.0211 µM): 99.3%
cell viability (RPMI 5 mM glucose + 10% dialyzed FBS, 0.0632 µM): 84.6%
cell viability (RPMI 5 mM glucose + 10% dialyzed FBS, 0.19 µM): 104%
cell viability (RPMI 5 mM glucose + 10% dialyzed FBS, 0.569 µM): 118%
cell viability (RPMI 5 mM glucose + 10% dialyzed FBS, 1.71 µM): 119%
cell viability (RPMI 5 mM glucose + 10% dialyzed FBS, 5.12 µM): 110%
cell viability (RPMI 5 mM glucose + 10% dialyzed FBS, 15.4 µM): 99.6%
cell viability (RPMI 5 mM glucose + 10% dialyzed FBS, 46.1 µM): 14%
